Marks after values point to notes of the source that are not given here.
Legend:
[1] = test system: non-constipated IBS subjects; assay: Study S241.2.113: Phase II dose-ranging efficacy; format: in vivo, human
Protocol: Study S241.2.113 was a Phase II, double-blind, placebo-controlled, randomized, multi-center, parallel-group, dose-ranging study to investigate the efficacy and safety of cilansetron in nonconstipated subjects with irritable bowel syndrome. The study was conducted in 55 study centers in Canada, France, Austria, Germany, United Kingdom, Italy, Belgium, and The Netherlands. A total of at least 88 subjects per treatment group evaluable for efficacy were planned, in total 440 to complete the study; 776 subjects were screened; 485 subjects were randomized (479 in the safety sample). Diagnosis and main criteria for inclusion were IBS subjects satisfying the Rome criteria (1992) and minimum abdominal pain/discomfort, stool frequency and consistency determined during the run-in period.
Subjects were treated with cilansetron 1 mg, 2 mg, 4 mg and 16 mg tablets given orally TID or matching placebo tablets given orally TID for 12 weeks.
The primary efficacy parameter was the weekly global question concerning adequate relief of IBS symptoms (abdominal pain/discomfort, abnormal bowel habits). A responder is a subject who responded “Yes” at least 50% of the time after randomization, with a minimum treatment duration of four weeks.

[2] = test system: healthy, elderly subjects; assay: Study K.241.5014: gastric emptying time, elderly, 8 mg TID; format: in vivo, human; details: 8 mg TID oral 14 days, mean (SD)
Excerpt: The effect of cilansetron on gastric emptying time and colonic transit time has been studied in 1 clinical study in healthy young subjects and 2 studies in elderly subjects. For measurement of gastric emptying time, breath samples for the determination of the ^12C/^13C ratio were taken on the last day of each treatment period immediately after ingestion of a ^13C labeled meal. The patients' breath was collected in separate 15-minute intervals, for four hours in total. ^13CO2 measurements were performed with an isotope ratio mass spectrometer. The half-life (TK) and lag-time (Tlag), which describe the duration of gastric emptying, were used as the primary parameters to evaluate gastric emptying time. In all 3 studies, colonic transit time was measured by administration of radio-opaque markers for the last six days of each treatment period, followed by a single abdominal X-ray image at 24 hours after ingestion of the last set of markers. The numbers of markers within the colon were used to calculate segmental (right colon, left colon, and rectosigmoid) and total colonic transit time.
Studies K.241.5013 and K.241.5014 were randomized, double-blind, placebo-controlled, 2-way crossover studies in 8 healthy male and female elderly subjects, each (ITT population, aged 64-83 years in K.241.5013 and 66-84 years in K.241.5014). […]

SMILES: Cc1nccn1C[C@H]1CCc2c(c3cccc4c3n2CCC4)C1=O [Cilansetron, (R)-(−)-4,5,6,8,9,10-hexahydro-10-[(2-methyl-1H-imidazol-1-yl)methyl]-11H-pyrido-[3,2,1-jk]-carbazol-11-one]
- Responder rate higher than placebo ([1]; 1 mg TID): 11%
- Responder rate better than placebo ([1]; 2 mg TID): 22%
- Responder rate higher than placebo ([1]; 4 mg TID): 8%
- Responder rate higher than placebo ([1]; 16 mg TID): 18%
- gastric emptying time T½ [2]: 166 (18) min
- gastric emptying time Tlag ([2]; significant vs placebo (p < 0.05)): 114 (18)* min

— patent US20090176817A1, “Method of Treatment of Diarrhea-Predominant Irritable Bowel Syndrome in a Subject” (priority 2005, published 2009)
